Experimental data taken from PubChem BioAssay (NCI).
Several values for one entry are separate records, joined by “and”; a condition that tells them apart may be missing. Equal values may be shown once.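 The compound was tested at five concentrations on cells cultured in 96-well plates, with a 48-hour exposure period. GI50 marks 50% less growth. TGI: total growth inhibition.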

How the values were obtained:
Assay in all cases: NCI tumour cell line growth inhibition, 48 h
[1] = system: ACHN renal
[2] = system: HOP-92 NSCLC
[3] = system: K-562 leukemia
[4] = system: LOX IMVI melanoma
[5] = system: MCF7 breast
[6] = system: MDA-MB-231 breast
[7] = system: MDA-MB-435
[8] = system: PC-3 prostate
[9] = system: RPMI-8226 leukemia
[10] = system: SK-MEL-2 melanoma
[11] = system: SK-OV-3 ovarian
[12] = system: HL-60(TB) leukemia
[13] = system: OVCAR-4 ovarian

SMILES: CCOC(=O)CNC(=O)C(CSC(=O)N(O)c1ccc(Cl)cc1)NC(=O)CCC(N)C(=O)OCC (stereo not drawn)
- TGI [1]: > 50 µM
- TGI [2]: > 50 µM
- TGI [3]: > 50 µM
- TGI [4]: > 50 µM
- TGI [5]: > 50 µM
- TGI [6]: > 50 µM
- TGI [7]: > 50 µM
- TGI [8]: > 50 µM
- TGI [9]: 46 µM
- TGI [10]: > 50 µM
- TGI [11]: > 50 µM

SMILES: O=[N+]([O-])c1ccc(OC2CC3C4C=CC3C2C4)c([N+](=O)[O-])c1 (stereo not drawn)
- TGI [1]: > 100 µM
- GI50 [12]: 69.7 µM
- TGI [12]: > 100 µM
- TGI [2]: > 100 µM and 29.9 µM
- TGI [3]: > 100 µM
- GI50 [4]: > 100 µM
- TGI [4]: > 100 µM
- TGI [5]: > 100 µM
- GI50 [6]: 11.3 µM and > 31.6 µM
- TGI [6]: 74 µM and > 31.6 µM
- TGI [7]: > 100 µM
- TGI [13]: 76.3 µM and > 31.6 µM
- GI50 [8]: > 100 µM
- TGI [8]: > 100 µM
- GI50 [10]: 90.4 µM and > 31.6 µM
- TGI [10]: > 100 µM
- GI50 [11]: 68.5 µM and > 31.6 µM
- TGI [11]: > 100 µM

SMILES: NNC(=O)c1c(-c2cccnc2)cnc2ccccc12
- TGI [1]: > 100 µM
- TGI [12]: > 100 µM
- TGI [2]: > 100 µM
- TGI [3]: > 100 µM
- TGI [5]: > 100 µM
- TGI [13]: > 100 µM
- TGI [8]: > 100 µM
- TGI [9]: > 100 µM
- TGI [10]: > 100 µM
- TGI [11]: > 100 µM

SMILES: CCc1c(C)c(C#N)c(=S)n(C2OC(COC(C)=O)C(OC(C)=O)C(OC(C)=O)C2OC(C)=O)c1-c1ccccc1 (stereo not drawn)
- TGI [1]: > 31.6 µM
- TGI [12]: > 100 µM
- TGI [2]: > 31.6 µM
- TGI [3]: 47.2 µM
- TGI [4]: > 31.6 µM
- TGI [5]: > 31.6 µM
- TGI [6]: > 31.6 µM
- TGI [7]: > 31.6 µM
- TGI [13]: > 31.6 µM
- TGI [9]: > 100 µM
- TGI [10]: > 31.6 µM

SMILES: NC1CC(=O)c2c1sc(Cl)c2Cl (stereo not drawn)
- TGI [1]: > 100 µM
- TGI [12]: > 100 µM
- TGI [3]: > 100 µM
- TGI [5]: > 100 µM
- TGI [6]: > 100 µM
- TGI [7]: > 100 µM
- TGI [8]: > 100 µM
- TGI [9]: > 100 µM
- TGI [10]: > 100 µM
- TGI [11]: > 100 µM

SMILES: O=c1[nH]c(=S)nc2nc3c4ccc[nH]c4c4ccccc4c3nc12
- TGI [1]: > 100 µM
- TGI [12]: 66.1 µM
- TGI [2]: > 100 µM
- TGI [5]: > 100 µM
- TGI [7]: > 100 µM
- TGI [13]: > 100 µM
- TGI [8]: > 100 µM
- TGI [9]: > 100 µM
- TGI [11]: > 100 µM

SMILES: CN(C)C(=NCc1ccccc1)NC#N
- TGI [1]: > 100 µM
- TGI [2]: > 100 µM
- TGI [4]: > 100 µM
- TGI [13]: > 100 µM
- TGI [10]: > 100 µM
- TGI [11]: > 100 µM

SMILES: COc1cc(O)c2c(=O)c(O)c(-c3ccc(O)c(OC)c3)oc2c1
- TGI [12]: > 23 µM
- TGI [3]: 10.5 µM
- TGI [4]: > 100 µM
- TGI [5]: > 100 µM
- TGI [6]: > 100 µM
- TGI [8]: > 100 µM
- TGI [9]: > 100 µM
- TGI [10]: > 100 µM

SMILES: CCOC(=O)/C=C/CCO[Si](C)(C)C(C)(C)C
- TGI [1]: > 100 µM
- TGI [2]: > 100 µM
- TGI [3]: > 100 µM
- TGI [4]: > 100 µM
- TGI [5]: > 100 µM
- TGI [6]: > 100 µM
- TGI [7]: > 100 µM
- TGI [13]: > 100 µM
- TGI [8]: > 100 µM
- TGI [9]: > 100 µM
- TGI [10]: > 100 µM
- TGI [11]: > 100 µM

SMILES: CCCCCCCC1(N=[N+]=[N-])C(=O)Nc2ccccc2C1=O (stereo not drawn)
- TGI [1]: 28.6 µM
- TGI [2]: 27.2 µM
- TGI [3]: 61.3 µM
- TGI [4]: 26.9 µM
- TGI [5]: 34.6 µM
- TGI [6]: 41.3 µM
- TGI [7]: 34.2 µM
- TGI [13]: 29.8 µM
- TGI [8]: 24.1 µM
- TGI [9]: > 100 µM
- TGI [10]: 32.7 µM
- TGI [11]: 30.4 µM

SMILES: COc1ccc(N2C(=O)/C(=C\c3cc(OC)c(OC)c(OC)c3)SC2c2ccccc2)cc1 (stereo not drawn)
- TGI [1]: > 100 µM
- TGI [12]: > 100 µM
- TGI [2]: > 100 µM
- TGI [3]: > 100 µM
- TGI [4]: > 100 µM
- TGI [5]: > 100 µM
- TGI [6]: > 100 µM
- TGI [7]: > 100 µM
- TGI [13]: > 100 µM
- TGI [9]: > 100 µM
- TGI [10]: > 100 µM
- TGI [11]: > 100 µM

SMILES: Cc1nc2ccc(C(F)(F)F)cc2nc1NCc1ccc(Cl)c(Cl)c1
- TGI [1]: 28 µM
- TGI [12]: 34.7 µM
- TGI [3]: 42.2 µM
- TGI [4]: 29.6 µM
- TGI [5]: 22.6 µM
- TGI [6]: 29.4 µM
- TGI [7]: 31.8 µM
- TGI [8]: 25.6 µM
- TGI [9]: 38.9 µM

SMILES: O=C1Cc2c([nH]c3ccc(Br)cc23)-c2cc(O)c(O)cc2N1
- TGI [1]: > 100 µM
- TGI [2]: > 100 µM
- TGI [3]: > 100 µM
- TGI [4]: > 100 µM
- TGI [5]: > 100 µM
- TGI [6]: > 100 µM
- TGI [7]: > 100 µM
- TGI [13]: > 100 µM
- TGI [8]: > 100 µM
- TGI [9]: > 100 µM
- TGI [10]: > 100 µM
- TGI [11]: > 100 µM

SMILES: Nc1ccc2c(c1)nc1n2C(c2c(F)cccc2F)SC1 (stereo not drawn)
- TGI [1]: > 100 µM
- TGI [12]: > 100 µM
- TGI [3]: > 100 µM
- TGI [4]: > 100 µM
- TGI [5]: > 100 µM
- TGI [6]: > 100 µM
- TGI [7]: > 100 µM
- TGI [13]: > 100 µM
- TGI [8]: > 100 µM
- TGI [9]: > 100 µM
- TGI [10]: > 100 µM
- TGI [11]: > 100 µM

SMILES: C/C=C/C#CC#C/C=C/C=C/C(O)CCO (stereo not drawn)
- TGI [1]: > 23.1 µM
- TGI [12]: > 23.1 µM
- TGI [2]: > 23.1 µM
- TGI [3]: > 23.1 µM
- TGI [4]: > 23.1 µM
- TGI [13]: > 23.1 µM
- TGI [9]: > 23.1 µM
- TGI [10]: > 23.1 µM
- TGI [11]: > 23.1 µM

SMILES: O=c1[nH]nc(Cc2ccccc2)n1C1CCCC1
- TGI [1]: > 100 µM
- TGI [12]: > 100 µM
- TGI [3]: > 100 µM
- TGI [4]: > 100 µM
- TGI [5]: > 100 µM
- TGI [6]: > 100 µM
- TGI [7]: > 100 µM
- TGI [13]: > 100 µM
- TGI [8]: > 100 µM
- TGI [9]: > 100 µM
- TGI [11]: > 100 µM

SMILES: CC1(C)CNCC(C)(OCc2ccccc2)C(=O)NC(C)(C)CNCC(C)(OCc2ccccc2)C(=O)N1 (stereo not drawn)
- TGI [1]: > 10 µM
- TGI [2]: 4.8 µM
- TGI [3]: > 10 µM
- TGI [4]: > 10 µM
- TGI [5]: > 10 µM
- TGI [6]: > 10 µM
- TGI [7]: > 10 µM
- TGI [8]: > 10 µM
- TGI [10]: > 10 µM
- TGI [11]: > 10 µM

SMILES: COc1c(=O)cc2cc[nH]c3ccn(C)c1c23
- TGI [1]: > 100 µM
- TGI [3]: > 100 µM
- TGI [4]: > 100 µM
- TGI [5]: > 100 µM
- TGI [6]: > 100 µM
- TGI [7]: > 100 µM
- TGI [13]: > 100 µM
- TGI [8]: > 100 µM
- TGI [9]: > 100 µM
- TGI [10]: > 100 µM
- TGI [11]: > 100 µM

SMILES: COC(=O)[C@]1(NC(=O)c2ccccc2)C[C@H]1C=O
- TGI [1]: > 100 µM
- TGI [2]: > 100 µM
- TGI [3]: > 100 µM
- TGI [4]: > 100 µM
- TGI [5]: > 100 µM
- TGI [6]: > 100 µM
- TGI [7]: > 100 µM
- TGI [13]: > 100 µM
- TGI [8]: > 100 µM
- TGI [9]: > 100 µM
- TGI [10]: > 100 µM
- TGI [11]: > 100 µM

SMILES: C/C(=C\CBr)CCC(Br)C(C)(C)Cl (stereo not drawn)
- TGI [1]: > 100 µM
- TGI [2]: > 100 µM
- TGI [3]: > 100 µM
- TGI [4]: > 100 µM
- TGI [13]: > 100 µM
- TGI [9]: > 100 µM
- TGI [10]: > 100 µM
- TGI [11]: > 100 µM
